Source: patent publication US10959970B2, “Methods of treating hair related conditions” (Nogra Pharma Limited, priority 2009, dated 2021)

Assays:
[1] = tested on: microdissected organ-cultured hair follicles; test: Hair shaft elongation in Philpott model of microdissected organ-cultured hair follicles; format: cell-based, human; conditions: 6 days, lower dose of compound A, FIG. 1
Method: (§1) A Philpott model test system of microdissected organ-cultured hair follicles is used. Hair follicles and skin punches were divided into 4 groups (3 HFs/well) incubated with the test substance Compound ‘A in different concentrations for 6 days. On day 0, microdissection measurements of hair length are conducted. On day 1, the medium is changed and addition of compound A (with measurement of hair length). On day 3, the medium is changed and compound a is added (with measurement of hair length). On day 6, hair length is measured and embedding occurs.

[2] = tested on: human hair follicle pigmentation; test: Fontana-Masson histomorphometry/melanin staining on hair follicle cryosections; format: cell-based; conditions: FIG. 2
Method: as §1

[3] = tested on: human hair matrix keratinocytes; test: Ki-67/Tunel fluorescent staining of hair follicles; format: cell-based; conditions: high doses of compound A; FIG. 4
Method: as §1
Ki-67/Tunel staining was also conduct on the hair follicles using fluorescent staining.

[4] = tested on: K15; test: K15 expression in treated hair follicles and skin; format: cell-based, human; conditions: FIG. 5
Method: as §1

[5] = tested on: K19; test: K19 cells in treated hair follicles and skin; format: cell-based, human; conditions: for K19 cells: lower hair follicle, FIG. 6
Method: as §1

[6] = tested on: human primary keratinocytes; test: MTT test on human primary keratinocytes; format: cell-based; conditions: 0.1-1-2 mM, 24 and 48 h, FIG. 7
Method: To assess the possible toxic or cytostatic effect of the substances under study, a spectrophotometric test (MTT) was carried out. The human primary keratinocytes, isolated from skin biopsies, were plated in wells of a 24-well plate in suitable medium with addition of antibiotics, calcium, and specific growth factors. At around 70% confluence, the cells were exposed to the presence of Compound A, at various concentrations (0.1-1-2 mM), for 24 and 48 h in suitable medium with addition of antibiotics, calcium, but no growth factors. This culture condition was done for all the subsequent experiments. At the end of the treatment, the MTT test was done.

[7] = tested on: TNF-alpha mRNA; test: Inhibition of TNF-alpha mRNA induction by H2O2 in keratinocytes (Real time RT-PCR); format: cell-based, human; conditions: H2O2 300 μM, 6 h, FIG. 8
Method: Analysis of the inhibition of compound A of the mRNA induction of the proinflammatory cytokine TNF-alpha by H2O2 was carried out by Real time RT-PCR. The keratinocytes were plated in dishes of 6 cm/Ø. At 80% confluence, the cells were treated with H2O2 (300 μM) in presence of Compound A at the three concentrations (0.01-0.1-0.5 mM) for 6 h. At the end of the treatment, the cells were lysed in a lysis buffer and subjected to isolation and subsequent retrotranscription of the RNA. […] (FIG. 8)

[8] = tested on: IL-6 mRNA; test: Inhibition of IL-6 mRNA induction by IFN-γ in keratinocytes (Real time RT-PCR); format: cell-based, human; conditions: IFN-γ 30 ng/ml, 0.01-0.1-0.5 mM, 6 h, FIG. 9
Method: Analysis of the inhibition by compound A of the mRNA induction of the proinflammatory cytokine IL-6 by IFN-γ was done through Real time RT-PCR. The keratinocytes were plated in dishes of 6 cm/Ø.
At 80% confluence, the cells were treated with IFN-γ (30 ng/ml) in presence of compound A at the three concentrations (0.01-0.1-0.5 mM) for 6 h.

[9] = tested on: IL-6; test: Inhibition of IL-6 protein induction by LPS in keratinocytes (ELISA); format: cell-based, human; conditions: LPS 10 μg/ml, 0.01-0.1-0.5 mM, 24 h, supernatant ELISA, FIG. 11
Method: Analysis of the inhibition by Compound A of the protein induction of IL-6 by LPS (lipopolysaccharide) was done with the ELISA kit. The keratinocytes were plated in wells of a 24-well plate. At 80% confluence, the cells were treated with LPS (10 μg/ml) in presence of compound A at the three concentrations (0.01-0.1-0.5 mM) for 24 h. At the end of the treatment, the supernatant was decanted, centrifuged so as to remove any cell detritus, and kept at −80° C. until the time of the analysis. The quantity of IL-6 present in the supernatant was normalized by the protein concentration of the sample itself.

[10] = tested on: sebocytes; test: MTT test on human sebocytes; format: cell-based; conditions: 0.1-0.5-1-2 mM, 24 and 48 h, FIG. 12
Method: To assess the possible toxic or cytostatic effect of the substances under study, a spectrophotometric test (MTT) was carried out. The sebocytes were plated in wells of a 24-well plate in suitable medium with addition of antibiotics, calcium and EGF. At roughly 70% confluence, the cells were exposed to the presence of compound A, in various concentrations (0.1-0.5-1-2 mM), for 24 and 48 h. At the end of the treatment, the MTT test was performed. […] (FIG. 12)

[11] = tested on: sebocytes; test: Nile Red assay of sebogenesis induced by linoleic acid and testosterone in sebocytes; format: cell-based, human; conditions: for sebogenesis (intracellular lipids, Nile Red) induced by LA and LA+TST: TST (20 nM), 24 h
Method: Analysis of the inhibition by (compound A) of sebogenesis induced by treatment with linoleic acid (LA) and with testosterone (TST) was evaluated by spectrofluorimetry, using Nile Red as selective marker of intracellular lipids (Nile Red Assay). The sebocytes were plated in wells of a 24-well plate. Next day, they were deprived of serum (2%) and after 24 h they were stimulated, for another 24 h, with LA (10^-4M), TST (20 nM) in presence or in absence of A (1 mM). At the end of the treatment, the sebocytes were stained with Nile Red. The quantitative analysis was done by spectrofluorimetry, which made it possible to distinguish between neutral lipids and polar lipids based on the different wavelength of excitation and emission. […] (FIG. 13).
Analysis of the inhibition by compound A of sebogenesis induced by treatment with linoleic acid (LA) and with testosterone (TST) was evaluated by spectrofluorimetry, using Nile Red as selective marker of intracellular lipids (Nile Red Assay). The sebocytes were plated in wells of a 24-well plate. Next day, they were deprived of serum (2%) and after 24 h they were stimulated, for another 24 h, with LA (10^-4M), TST (20 nM) in presence or in absence of compound A (1 mM). At the end of the treatment, the sebocytes were stained with Nile Red. The quantitative analysis was done by spectrofluorimetry, which made it possible to distinguish between neutral lipids and polar lipids based on the different wavelength of excitation and emission.

[12] = tested on: sebocytes; test: GC-MS assay of fatty acids and squalene in lipid extract of sebocytes stimulated with LA and TST; format: cell-based, human; conditions: sebocyte lipid extract, A 1 mM
Method: In order to evaluate in greater detail the inhibition by Compound A of sebogenesis induced by LA and TST, assays were performed on the lipid extract of the sebocytes using gas chromatography coupled with mass spectrometry (GC-MS). The sebocytes were treated by the scheme described for the Nile Red assay. At the end of the treatment, the cells were removed and then the lipid extraction was done by using organic solvents. One part of the extract was used to analyze the fatty acid composition, while the other part was used for the determination of the quantity of squalene, a lipid characteristic of sebum. […] (FIG. 14B)

SMILES: CO[C@H](Cc1ccc(NC(C)=O)cc1)C(=O)O [Compound A, N-acetyl-(R)-(−)-3-(4-aminophenyl)-2-methoxypropionic acid]
- hair shaft elongation [1]: stimulates hair shaft elongating
- human hair follicle pigmentation (melanin staining) [2]: stimulation of human hair follicle pigmentation
- proliferation and apoptosis of hair matrix keratinocytes (Ki67/Tunel immunohistomorphometry) [3]: stimulates both proliferation and apoptosis
- K15 expression ([4]; lower hair follicle, lower doses of compound A): significant upregulation
- K15 expression ([4]; treated skin): no measurable expression
- K19 cells ([5]; 10× higher concentration): down regulation
- K19 cells ([5]; lower concentration): significant upregulation
- K19 expression ([5]; skin): no measurable expression
- cellular vitality (MTT) [6]: did not show any effect on cellular vitality
- expression of the mRNA of TNF-α induced by H2O2 ([7]; higher dose (0.5 mM), effect similar to troglitazone (Tg)): complete inhibition
- expression of the mRNA of TNF-α induced by H2O2 ([7]; two higher doses (0.1 mM; 0.5 mM)): able to inhibit
- dose dependence of inhibition of IL-6 mRNA expression induced by IFN-γ [8]: does not appear to be dose-dependent
- mRNA expression of IL-6 induced by IFN-γ [8]: inhibit the expression of the inflammatory cytokine
- protein expression of IL-6 induced by LPS [9]: inhibit, in dose-dependent manner
- cell vitality (MTT) [10]: no effects on cell vitality
- sebogenesis (intracellular lipids, Nile Red) induced by LA and LA+TST ([11]; Example 9, LA (10^-4M), A 1 mM, FIG. 13): able to reduce the lipidogenic stimulus
- sebogenesis (intracellular lipids, Nile Red) induced by LA and LA+TST ([11]; Example 11, LA (10^-4M), compound A 1 mM, FIG. 15): able to reduce the lipidogenic stimulus
- influence of the times of treatment on reduction of the lipidogenic stimulus ([11]; Example 11, Nile Red assay, FIG. 15): No differences were observed
- fatty acid assay of lipidogenic stimulus induced by LA and LA+TST ([12]; FIG. 14A): reduced
- squalene analysis of lipidogenic stimulus induced by LA and LA+TST ([12]; FIG. 14B): confirmed
